From EPA's ToxValDB 9.5 come the findings set out here.

In data set [1] the test system is Rattus norvegicus. The note with it: for LD50 / LC50: acute.
Data set [2] concerns Rattus norvegicus. The note with it: oral.
The mark [3] stands for this setting: short-term, duration: 28 days, gavage, F, Sprague-Dawley, Clinical Observation: Salivation + Hematology: Hgb decrease, Hct decrease + Blood Chemistry: Bil increase, Bil increase(trend)gamma-GTP ….
The mark [4] stands for this setting: short-term, duration: 28 days, gavage, M, Sprague-Dawley, Clinical Observation: Salivation + Hematology: Hgb decrease, Hct decrease + Blood Chemistry: Bil increase, Bil increase(trend)gamma-GTP ….
Where [5] appears, read: subchronic, duration: 13 weeks, oral, gavage, Sprague-Dawley.
[6] abbreviates: subchronic, duration: 90 days, oral, diet.

Values joined by “and” are separate entries in the source; they are usually repeats but may differ in a detail not shown here. Identical values can stand only once.

Compound `COc1cc(NC(=O)C(N=Nc2ccc(-c3ccc(N=NC(C(C)=O)C(=O)Nc4cc(OC)c(Cl)cc4OC)c(Cl)c3)cc2Cl)C(C)=O)c(OC)cc1Cl` (stereo not given) [C.I. Pigment Yellow 83] registered an LD50 in data set [1] (oral, gavage) above 1750 mg/kg. In addition, in data set [1] (chronic, duration: 104 weeks, oral, gavage, Sprague-Dawley), the NOAEL came out at 630 mg/kg-day.
Take `CCC1CCCCC1` [Ethylcyclohexane]: in data set [2] (setting [3]), the LOEL came to 200 mg/kg-day and the NOEL came out at 40 mg/kg-day. In addition, in data set [2] (setting [4]), the LOEL came out at 200 mg/kg-day and the NOEL worked out at 40 mg/kg-day.
On to `CC(=O)C=Cc1ccccc1` [Methyl styryl ketone], for which the NOEL in data set [2] (short-term, duration: 28 days, gavage, M/F, Sprague-Dawley, Functional Observational Battery: Salivation Rearing decrease + Urinalysis: KET increase + Blood Chemistry: T-Cho increase + Absolute Organ …) was determined as 60 mg/kg-day.
With `COc1ccc([N+](=O)[O-])cc1N=Nc1c(O)c(C(=O)Nc2cccc([N+](=O)[O-])c2)cc2ccccc12` [C.I. Pigment Red 23], the NOEL in data set [2] (subchronic, duration: 13 weeks, diet, M/F, Fischer 344, Hematology: Hct decrease, Hgb decrease, RBC decrease + Blood Chemistry: LDH increase + Absolute Organ Weight: Liver + Relative Organ Weight…) was below 288 mg/kg-day.
Take `O=C(O)[C@H]1CCCC[C@H]1C(=O)O` [cis-1,2-Cyclohexanedicarboxylic acid]: in data set [2] (subchronic, gavage, M, Sprague-Dawley, Deaths + Clinical Observation: Dead (4/12)Soiled perigenitalia of urine + Hematology: WBC increase, Neutrophils(%) increase, Lymphocytes(%) …), the NOEL worked out at 300 mg/kg-day.
As to `CCC(C)(N)C#N` (stereo not given) [2-Amino-2-methyl-butyronitrile], in data set [1] (inhalation, Crl:CD(SD) BR), the LC50 is 430 mg/m3 and 446 mg/m3 and 417 mg/m3. The LD50 in data set [1] (oral, gavage, Sprague-Dawley) turned out to be 74 mg/kg.
In data set [1] (oral, gavage, Wistar), `OCCCO` [1,3-Propanediol] yielded an LD50 of 15.8 mg/kg.
In data set [1] (developmental, duration: 10 days, Inhalation, Sprague-Dawley), `O=C(O)c1cccc(C(=O)O)c1` [1,3-Benzenedicarboxylic acid] displayed an NOAEL above 10 mg/m3.
Take `CC(C)(CO)CO` [2,2-Dimethylpropane-1,3-diol]: the LD50 in data set [1] (oral) came to 3200 mg/kg. The NOAEL in data set [1] (reproduction developmental, oral, Sprague-Dawley, generation: F0) is 1000 mg/kg-day; in data set [1] (reproduction developmental, oral, Sprague-Dawley, generation: F1) it was 1000 mg/kg-day; in data set [1] (reproduction developmental, oral, gavage, Sprague-Dawley) it was 100 mg/kg-day; in data set [1] (short-term, duration: 2 weeks, oral, gavage, Wistar), 1000 mg/kg-day.
`Cc1ccc(C)c(O)c1C` [2,3,6-Trimethylphenol] registered a median lethal dose (LD50) in data set [1] (oral, gavage) above 2000 mg/kg.
Consider `CCCCN(CCCC)c1ccc(C(=O)c2ccccc2C(=O)O)c(O)c1` [2-[4-(Dibutylamino)-2-hydroxybenzoyl]benzoic acid], for which the LD50 in data set [1] (dermal, Sprague-Dawley) was above 2000 mg/kg; in data set [1] (oral, gavage, Sprague-Dawley), above 5000 mg/kg. In addition, the LOAEL in data set [1] (reproduction developmental, duration: 21 weeks, oral, gavage, M, Sprague-Dawley) was determined as 250 mg/kg-day; in data set [1] (reproduction developmental, duration: 21 weeks, oral, gavage, Sprague-Dawley, generation: F1), 250 mg/kg-day; in data set [1] (short-term, duration: 28 days, oral, gavage, M, Sprague-Dawley), 1000 mg/kg-day; in data set [1] (setting [5]) it was 250 mg/kg-day. Moreover, in data set [1] (setting [5]), the NOAEL was determined as 50 mg/kg-day.
In the case of `CC(C)N.CCCCCCCCCC(CC)c1ccc(S(=O)(=O)O)cc1` (stereo not given) [Isopropylammonium dodecylbenzenesulfonate], the LD50 was 1840 mg/kg in data set [1] (oral) and 1300 mg/kg in data set [1] (oral, gavage, Sprague-Dawley).
In data set [1] (oral, gavage, Wistar), `CC(C)CCCCCCCOC(=O)CCCCCCCC(=O)OCCCCCCCC(C)C` [Diisodecyl azelaate] had an LD50 above 2000 mg/kg.
The compound `Clc1nc(Cl)c(Cl)c(Cl)c1Cl` [Pentachloropyridine] came in with an LD50 in data set [1] (oral, gavage, Fischer 344) of 435 mg/kg. The compound also displayed an NOAEL in data set [1] (reproduction developmental, duration: 15 days, oral, gavage, F, Sprague-Dawley) of 50 mg/kg-day. For the same compound, in data set [1] (setting [6]), the LOAEL stood at 30 mg/kg-day and the NOAEL is 10 mg/kg-day.
Consider `N#Cc1nc(Cl)c(Cl)c(Cl)c1Cl` [3,4,5,6-Tetrachloropyridine-2-carbonitrile], for which the LD50 in data set [1] (oral, gavage) is ≥ 1000 mg/kg and ≤ 2000 mg/kg.
As for `CCCCCCCC/C=C\CCCCCCCC(=O)OC[C@@H](OC(=O)CCCCCCC/C=C\CCCCCCCC)[C@H]1OC[C@H](O)[C@H]1OC(=O)CCCCCCC/C=C\CCCCCCCC` [Sorbitan trioleate], the LD50 in data set [1] (oral, gavage, Wistar) was above 39800 mg/kg.
With `CCCCCCC(=O)OCCOCCOCCOCCOC(=O)CCCCCC` [Tetraethylene glycol diheptanoate], the LD50 in data set [1] (oral, gavage, ChR:CD) is above 25000 mg/kg; in data set [1] (oral, gavage, ChRCD), above 25000 mg/kg; in data set [1] (oral, gavage, Crl:CD(SD)), above 24500 mg/kg; in data set [1] (oral, gavage, Wistar) it was above 2000 mg/kg. In addition, in data set [1] (short-term, duration: 4 weeks, inhalation, Wistar), the LOAEL worked out at 1.1 mg/L. Also, the NOAEL in data set [1] (short-term, duration: 28 days, oral, gavage, Wistar) amounted to 1000 mg/kg-day.
Consider `O=S(=O)([O-])CCO.[Na+]` [Sodium 2-hydroxyethanesulfonate], for which, in data set [1] (oral, gavage, Wistar), the LD50 is above 5000 mg/kg.
In data set [1] (oral), `CC(C)(C)c1cc(CCC(=O)NNC(=O)CCc2cc(C(C)(C)C)c(O)c(C(C)(C)C)c2)cc(C(C)(C)C)c1O` registered an LD50 above 7000 mg/kg. The NOAEL in data set [1] (short-term, duration: 28 days, oral, diet) is above 10000 ppm; in data set [1] (subchronic, duration: 3 months, oral, diet), 38.4 mg/kg-day.
On to `CC(=O)O.CC(C)CCCCCCCOCCCN` [1-Propanamine, 3-(isodecyloxy)-, acetate], for which, in data set [1] (oral, gavage, Sprague-Dawley), the 50% lethal dose (LD50) is 1030 mg/kg and 1460 mg/kg and 1220 mg/kg.
As to `CCCCCCC([O-])CCCCCCCCCCC(=O)OC.[Li+]` (stereo not given) [Lithium methyl 12-hydroxystearate], the NOAEL was above 2000 mg/kg-day in data set [1] (reproduction developmental, duration: 0 days, dermal, non-occlusive, F, Sprague-Dawley); below 500 mg/kg-day in data set [1] (reproduction developmental, duration: 10 weeks, dermal, non-occlusive, M, Fischer 344); 500 mg/kg-day in data set [1] (subchronic, duration: 13 weeks, dermal, non-occlusive, F, Sprague-Dawley).
In the case of `CC(C)(c1ccccc1)c1ccc(Nc2ccc(C(C)(C)c3ccccc3)cc2)cc1`, the LC50 in data set [1] (oral, gavage) was above 10000 mg/kg.
